In patent publication US20250361234A1 (NICO THERAPEUTICS, INC., priority 2022, published 2025):

Biological target: T1, full-length SARM1 (FL-SARM1) (Homo sapiens, UniProt Q6SZW1)
T1 sequence (Q6SZW1 28-724): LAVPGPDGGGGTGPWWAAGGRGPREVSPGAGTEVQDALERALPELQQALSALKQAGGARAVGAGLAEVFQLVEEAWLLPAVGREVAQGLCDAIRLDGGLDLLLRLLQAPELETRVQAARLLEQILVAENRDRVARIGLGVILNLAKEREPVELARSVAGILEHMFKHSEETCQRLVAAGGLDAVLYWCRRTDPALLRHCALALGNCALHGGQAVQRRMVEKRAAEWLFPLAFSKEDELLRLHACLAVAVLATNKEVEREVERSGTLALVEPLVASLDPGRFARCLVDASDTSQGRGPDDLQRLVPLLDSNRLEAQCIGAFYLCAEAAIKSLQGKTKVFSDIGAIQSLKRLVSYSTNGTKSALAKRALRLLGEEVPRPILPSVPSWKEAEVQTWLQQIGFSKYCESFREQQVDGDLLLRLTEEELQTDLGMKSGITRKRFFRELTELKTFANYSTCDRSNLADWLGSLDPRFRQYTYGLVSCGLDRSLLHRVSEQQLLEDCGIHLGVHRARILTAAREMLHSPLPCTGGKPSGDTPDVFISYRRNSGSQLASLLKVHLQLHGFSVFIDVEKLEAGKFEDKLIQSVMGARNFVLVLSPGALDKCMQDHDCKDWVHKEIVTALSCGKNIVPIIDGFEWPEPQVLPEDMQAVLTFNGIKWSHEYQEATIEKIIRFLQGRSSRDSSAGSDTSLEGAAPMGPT
Experiment: FL-SARM1 cellular lysate assay (NAD/NADH-Glo readout of remaining NAD+)
Details: SARM1 cellular lysate from transfected HEK293T cells, NAD+ and NMN, 11 point curve
Protocol: Preparation of full-length SARM1 (FL-SARM1) lysate: HEK293T cells (ATCC: CRL-3216) were grown on 150 mm TC-treated dishes to 80-90% confluency in complete DMEM (Thermo Fisher: 11965175) supplemented with 10% HI-FBS (VWR: 10802-772), 1× Pen/Strep (Thermo Fisher: 15140122), 1× NEAA (Thermo Fisher: 1140050), 1× glutamax (Thermo Fisher: 35050061), and 1 mM sodium pyruvate (Thermo Fisher: 11360070)) at 37° C. and 5% CO2. One hour prior to transfection, the media was replaced with fresh, 37° C. complete DMEM (20 mL per one 150 mm dish) supplemented with additional 10 mM glucose (Alfa Aesar AAJ60067EQE). Per one 150 mm dish, 30 μg FL-SARM1 (SEQ. ID. 1; cloned in-house) plasmid was dissolved in 1 mL DMEM at ambient temperature and were mixed by inverting the tube 8-10 times. 90 μL of GenJet™ in vitro DNA transfection reagent (Ver2) was dissolved in 1 mL DMEM at ambient temperature and were mixed by inverting the tube 8-10 times. The plasmid and transfection agent solutions were combined, mixed by 8-10 inversions and incubated for 10 minutes at ambient temperature. 2 mL of this transfection mixture was added to each dish containing HEK293T cells as prepared above followed by a gentle mixing of 4-5 horizontal rotations. The dishes were incubated at 37° C. and 5% CO2 for 24 h. The dishes were removed from the incubator, the medium was aspirated and the cells were scraped off using cell scrapers in ice-cold 1× PBS (5 mL/dish, Thermo Fisher Scientific 10010023). The collected cells were centrifuged at 300 g for 5 minutes at 4° C. The supernatant was aspirated and the pellet was frozen at −80° C. until needed. The cell pellet from 30 dishes was dissolved in 30 mL 1× PBS supplemented with 4 tablets of Complete, Mini EDTA-free protease inhibitor cocktail at 4° C. This mixture was sonicated on ice for 10 minutes at 50% amplitude with a 1 second on/1 second off interval using a Model 120 sonicator (Thermo Fisher Scientific, FB120110). The lysate was centrifuged at 16000 g for 10 minutes at 4° C.
To a white 384-well Proxiplate (PerkinElmer, PE-6008280) was added 50 nL/well of a DMSO solution containing test compounds followed by 7.5 mL/well of a 0.067 mg/mL solution of SARM1 cellular lysate in reaction buffer (DPBS containing CHAPSO (0.1%) and fatty acid free BSA (0.032%)). The plate was centrifuged for 1 minute at 1000 RPM and then placed in an incubator at 23° C. for 15 minutes. To the wells were added 2.5 mL/well of a solution containing 40 mM NAD^+ and 4 mM NMN in reaction buffer. The plate was centrifuged for 1 min at 1000 RPM, the plate was sealed and placed in an incubator at 23° C. for 3.5 hours before adding 3.5 mL/well of NAD/NADH-Glo™ solution (preparation as described by Promega using the extended detection protocol). The plate was centrifuged for 1 minute at 1000 RPM and then incubated at 23° C. for 20 minutes. 1 mL/well of a 3.625 mM solution of menadione in DMSO was added and the plate was centrifuged for 1 minute at 1000 RPM. […] Percent inhibition was calculated as follows:
IC50 values were calculated from an 11 point curve using ½ log dilutions using a four-parameter logistic regression curve fit.

Structure (SMILES): Cc1ccc(NC(=O)N2C3CC[C@H](C(=O)N(C)C)[C@@H]2C3)cc1-c1cncc(F)c1 [Example 33, cis-N^6-(3-(5-fluoropyridin-3-yl)-4-methylphenyl)-N^2,N^2-dimethyl-6-azabicyclo[3.1.1]heptane-2,6-dicarboxamide]
- IC50 (Activity (μM)): 32.9 µM
- IC50 (Activity): > 10 µM

Structure (SMILES): Cc1ccc(NC(=O)N2C3CC[C@H](C#N)[C@@H]2C3)cc1-c1cncc(F)c1 [Example 30, cis-2-cyano-N-(3-(5-fluoropyridin-3-yl)-4-methylphenyl)-6-azabicyclo[3.1.1]heptane-6-carboxamide]
- IC50 (Activity (μM)): 5.5 µM
- IC50 (Activity): 1 to 10 µM

Structure (SMILES): Cc1ccc(NC(=O)N2C3CCCC2C3)cc1-c1cccnc1C#N [Example 61, N-[3-(2-cyanopyridin-3-yl)-4-methylphenyl]-6-azabicyclo[3.1.1]heptane-6-carboxamide]
- IC50 (Activity (μM)): 0.8 µM
- IC50 (Activity): 0.0001 to 1 µM

Structure (SMILES): Cc1ccc(NC(=O)N2[C@H](C)CCC[C@H]2C)cc1-c1cncc(F)c1 [Example 22, (2R,6R)-N-(3-(5-fluoropyridin-3-yl)-4-methylphenyl)-2,6-dimethylpiperidine-1-carboxamide]
- IC50 (Activity (μM)): 1.2 µM
- IC50 (Activity): 1 to 10 µM

Structure (SMILES): C[C@@H]1CC2C[C@@H](C1)N2C(=O)Nc1ccc(C(F)(F)F)c(-c2cncc(F)c2)c1 (single isomer, unassigned) [Example 52, trans-N-(3-(5-fluoropyridin-3-yl)-4-(trifluoromethyl)phenyl)-3-methyl-6-azabicyclo[3.1.1]heptane-6-carboxamide]
- IC50 (Activity (μM)): 0.08 µM
- IC50 (Activity): 0.0001 to 1 µM

Structure (SMILES): COc1c(F)cncc1-c1cc(NC(=O)N2C3CCCC2C3)ccc1C [Example 90, N-(3-(5-fluoro-4-methoxypyridin-3-yl)-4-methylphenyl)-6-azabicyclo[3.1.1]heptane-6-carboxamide]
- IC50 (Activity (μM)): 1.9 µM
- IC50 (Activity): 1 to 10 µM

Structure (SMILES): Cc1ccc(NC(=O)N2[C@H](C)CCC[C@@H]2C)cc1-c1cncc(F)c1 [Example 21, cis-N-(3-(5-fluoropyridin-3-yl)-4-methylphenyl)-2,6-dimethylpiperidine-1-carboxamide]
- IC50 (Activity (μM)): 1.5 µM
- IC50 (Activity): 1 to 10 µM

Structure (SMILES): Cc1ccc(NC(=O)N2C3CCCC2(C(=O)N2CCCC2)C3)cc1-c1cncc(F)c1 (centres unmarked) [Example 93, N-[3-(5-fluoropyridin-3-yl)-4-methylphenyl]-1-(pyrrolidine-1-carbonyl)-6-azabicyclo[3.1.1]heptane-6-carboxamide]
- IC50 (Activity (μM)): 4.4 µM
- IC50 (Activity): 1 to 10 µM

Structure (SMILES): Cc1ncc(-c2cc(NC(=O)[C@@H]3CC3(F)F)ccc2C)cn1 [Example 111, (1S)-2,2-difluoro-N-[4-methyl-3-(2-methylpyrimidin-5-yl)phenyl]cyclopropane-1-carboxamide]
- IC50 (Activity (μM)): 20.4 µM
- IC50 (Activity): > 10 µM

Structure (SMILES): Cc1ccc(NC(=O)N2C3CCCC2(C#N)C3)cc1-c1cncc(F)c1 (centres unmarked) [Example 96, 1-cyano-N-[3-(5-fluoropyridin-3-yl)-4-methylphenyl]-6-azabicyclo[3.1.1]heptane-6-carboxamide]
- IC50 (Activity (μM)): 0.07 µM
- IC50 (Activity): 0.0001 to 1 µM

Structure (SMILES): Cc1ccc(NC(=O)C2CCCN2c2ncccn2)cc1-c1cncc(F)c1 (racemic) [Example 104, N-[3-(5-fluoropyridin-3-yl)-4-methylphenyl]-1-pyrimidin-2-ylpyrrolidine-2-carboxamide]
- IC50 (Activity (μM)): 26.4 µM
- IC50 (Activity): > 10 µM

Structure (SMILES): Cc1ccc(NC(=O)[C@H]2C[C@@](C#N)(C3CC3)C2)cc1-c1cncc(F)c1 [Example 106, trans-3-cyano-3-cyclopropyl-N-[3-(5-fluoropyridin-3-yl)-4-methylphenyl]cyclobutane-1-carboxamide]
- IC50 (Activity (μM)): 0.6 µM
- IC50 (Activity): 0.0001 to 1 µM

Structure (SMILES): Cc1ccc(NC(=O)OC2CCC2)cc1-c1cccnc1 [Example 129, cyclobutyl N-(4-methyl-3-pyridin-3-ylphenyl)carbamate]
- IC50 (Activity (μM)): 30.9 µM
- IC50 (Activity): > 10 µM

Structure (SMILES): C[C@H]1CC2C[C@@H](C1)N2C(=O)Nc1ccc(C#N)c(-c2cncc(F)c2)c1 (single isomer, unassigned) [Example 78, cis-N-(4-cyano-3-(5-fluoropyridin-3-yl)phenyl)-3-methyl-6-azabicyclo[3.1.1]heptane-6-carboxamide]
- IC50 (Activity (μM)): 0.1 µM
- IC50 (Activity): 0.0001 to 1 µM

Structure (SMILES): Cc1ccc(NC(=O)N2C3C[C@@H]2C[C@@H](C(C)(C)O)C3)cc1-c1cncc(F)c1 [Example 14, trans-N-(3-(5-fluoropyridin-3-yl)-4-methylphenyl)-3-(2-hydroxypropan-2-yl)-6-azabicyclo[3.1.1]heptane-6-carboxamide]
- IC50 (Activity (μM)): 23.9 µM
- IC50 (Activity): > 10 µM

Structure (SMILES): Cc1ccc(NC(=O)[C@H]2C[C@@H](C3CC3(F)F)C2)cc1-c1cccnc1 (stereo partly drawn) [Example 100, cis-3-(2,2-difluorocyclopropyl)-N-(4-methyl-3-pyridin-3-ylphenyl)cyclobutane-1-carboxamide]
- IC50 (Activity (μM)): 1.5 µM
- IC50 (Activity): 1 to 10 µM

Structure (SMILES): Cc1ccc(NC(=O)N2C3C[C@H]2C[C@]2(C3)CC2(F)F)cc1-c1cncc(F)c1 (stereo in doubt) [Example 10, trans-2′,2′-difluoro-N-(3-(5-fluoropyridin-3-yl)-4-methylphenyl)-6-azaspiro[bicyclo[3.1.1]heptane-3,1′-cyclopropane]-6-carboxamide]
- IC50 (Activity (μM)): 0.3 µM
- IC50 (Activity): 0.0001 to 1 µM

Structure (SMILES): Cc1ccc(NC(=O)N2C3CCCC2C3)cc1-c1cncc(F)c1 [Example 87, N-(3-(5-fluoropyridin-3-yl)-4-methylphenyl)-6-azabicyclo[3.1.1]heptane-6-carboxamide]
- IC50 (Activity (μM)): 0.1 µM
- IC50 (Activity): 0.0001 to 1 µM

Structure (SMILES): Cc1nnc([C@]23C[C@H](C)C[C@H](C2)N3C(=O)Nc2cc(-c3cncc(F)c3)c(C)cc2F)o1 (single isomer, unassigned) [Example 124, cis-N-(2-fluoro-5-(5-fluoropyridin-3-yl)-4-methylphenyl)-3-methyl-1-(5-methyl-1,3,4-oxadiazol-2-yl)-6-azabicyclo[3.1.1]heptane-6-carboxamide]
- IC50 (Activity (μM)): 5.5 µM
- IC50 (Activity): 1 to 10 µM

Structure (SMILES): Cc1nnc([C@]23C[C@H](C)C[C@H](C2)N3C(=O)Nc2ccc(C)c(-c3cncc(F)c3)c2)o1 (single isomer, unassigned) [Example 127, cis-N-(3-(5-fluoropyridin-3-yl)-4-methylphenyl)-3-methyl-1-(5-methyl-1,3,4-oxadiazol-2-yl)-6-azabicyclo[3.1.1]heptane-6-carboxamide]
- IC50 (Activity (μM)): 0.01 µM
- IC50 (Activity): 0.0001 to 1 µM

Structure (SMILES): C[C@@H]1CC2C[C@@H](C1)N2C(=O)Nc1ccc(F)c(-c2cncc(F)c2)c1 (single isomer, unassigned) [Example 57, trans-N-(4-fluoro-3-(5-fluoropyridin-3-yl)phenyl)-3-methyl-6-azabicyclo[3.1.1]heptane-6-carboxamide]
- IC50 (Activity (μM)): 0.3 µM
- IC50 (Activity): 0.0001 to 1 µM

Structure (SMILES): COC(=O)[C@H]1C[C@@H]2C[C@H](C1)N2C(=O)Nc1ccc(C)c(-c2cncc(F)c2)c1 (single isomer, unassigned) [Example 12, trans-methyl 6-((3-(5-fluoropyridin-3-yl)-4-methylphenyl)carbamoyl)-6-azabicyclo[3.1.1]heptane-3-carboxylate]
- IC50 (Activity (μM)): 3.7 µM
- IC50 (Activity): 1 to 10 µM

Structure (SMILES): Cc1ccc(NC(=O)N2C3CC2CC(C)(O)C3)cc1-c1cncc(F)c1 (single isomer, unassigned) [Example 46, N-(3-(5-fluoropyridin-3-yl)-4-methylphenyl)-3-hydroxy-3-methyl-6-azabicyclo[3.1.1]heptane-6-carboxamide]
- IC50 (Activity (μM)): 8.7 µM
- IC50 (Activity): 1 to 10 µM

Structure (SMILES): Cc1ccc(NC(=O)N2CC3CC2c2ccccc23)cc1-c1cncc(F)c1 (centres unmarked) [Example 95, N-[3-(5-fluoropyridin-3-yl)-4-methylphenyl]-9-azatricyclo[6.2.1.02,7]undeca-2,4,6-triene-9-carboxamide]
- IC50 (Activity (μM)): 0.2 µM
- IC50 (Activity): 0.0001 to 1 µM

Structure (SMILES): Cc1ccc(NC(=O)CC2CCC2)cc1-c1cccnc1 [Example 114, 2-cyclobutyl-N-(4-methyl-3-pyridin-3-ylphenyl)acetamide]
- IC50 (Activity (μM)): 4.3 µM
- IC50 (Activity): 1 to 10 µM

Structure (SMILES): Cc1ccc(NC(=O)N2C3CCCC2C3)cc1-c1ccc(C#N)nc1 [Example 60, N-[3-(6-cyanopyridin-3-yl)-4-methylphenyl]-6-azabicyclo[3.1.1]heptane-6-carboxamide]
- IC50 (Activity (μM)): 8.5 µM
- IC50 (Activity): 1 to 10 µM

Structure (SMILES): Cc1ccc(NC(=O)N2C3C[C@H]2C[C@@]2(C3)CC2(F)F)cc1-c1cncc(F)c1 [Example 11, cis-2′,2′-difluoro-N-(3-(5-fluoropyridin-3-yl)-4-methylphenyl)-6-azaspiro[bicyclo[3.1.1]heptane-3,1′-cyclopropane]-6-carboxamide]
- IC50 (Activity (μM)): 0.08 µM
- IC50 (Activity): 0.0001 to 1 µM

Structure (SMILES): O=C(Nc1ccc(C(F)(F)F)c(-c2cncc(F)c2)c1)N1C2CCCC1C2 [Example 75, N-(3-(5-fluoropyridin-3-yl)-4-(trifluoromethyl)phenyl)-6-azabicyclo[3.1.1]heptane-6-carboxamide]
- IC50 (Activity (μM)): 1 µM
- IC50 (Activity): 1 to 10 µM
